This note sets out measurements from patent US20230146395A1, “Substituted Pyrimidines and Uses Thereof” (Verge Analytics, Inc., priority 2020, published 2023).

In test [1] the test system is HEK 293T transfected with plasmids containing TDP-43 Q331K mutation. As to the kind of experiment: HEK/TDP Survival assay (Cell-Titer-Glo, 48 hrs, maximal effect of rescue). Type of test: cell-based. The note with it: Homo sapiens, HEK 293T with TDP-43 Q331K, (n) in brackets. On the procedure:
HEK/TDP Survival assay: Immortalized human embryonic kidney 293T (HEK 293T) were transfected with plasmids containing TDP-43 Q331K mutation, resulting in an increase in cell death that is biologically relevant to ALS patients. Cell death is measured as reductions in the amount of ATP, an indicator of metabolically active cells, that is quantified by a luminescence Cell-Titer-Glo® (CTG) reagent. Compounds are evaluated in this model for changes in CTG compared to a no treatment group. Increased signal indicates improved survival (rescue) and decreased signal indicates decreased survival.
Cell rescue was measured in a 96-well format with eight different concentrations of the test compound over 48 hours (hrs) with 6 replicates. The Promega Cell-Titer-Glo® Luminescent Cell Viability Assay was used to quantify ATP, an indicator of metabolically active cells (see protocol: https://www.promega.com/-/media/files/resources/protocols/technical-manuals/101/celltiterglo-2-0-assay-protocol.pdf?la=en). The luminescence signal was detected using the PerkinElmer EnVision or Molecular Devices SpectraMax.
The effect of a compound at a given dose on cell viability was determined using a three step procedure. First, Hedge's g for the Cell Titer-Glo luminescence values using six untreated wells on every plate as a control was calculated. […] Finally, values from all compound-dose pairs were corrected for multiple hypothesis testing using the Empirical Bayes framework of Stephens, M. (False discovery rates: a new deal, Biostatistics, 18 [2], 2017, 275-294) yielding credible intervals for the measured effect and associated s values.
Briefly, this method computes a local false sign rate for each experiment. Analogous to the local false discovery rate of Efron, B. (Size, power and false discovery rates, Ann. Statist. 35 [4], 2007, 1351-1377) this value measures the confidence in the sign of each effect (rather than confidence in each effect being non-zero). The s values reported in the previous figures are the expected fraction of errors if estimating the sign of all effects with greater absolute local false sign rate, defined in analogy to the q value of Storey, JD (The positive false discovery rate: a Bayesian interpretation and the q-value, Ann. Statist. 31 [6] 2003, 2013-2035).
Drugs that yielded signed log s values greater than 3 were considered hits. This threshold was determined by a separate calibration experiment in which Cell Titer-Glo® was measured in blank plates consisting of untreated cells to assess the noise inherent in the assay. Data are presented as the maximal effect of rescue obtained from the dose-response curve.

Test [2] has as its system ALS patient (SOD1 A4V) iPSC derived motor neurons. Briefly: iPSC MN Survival assay (GFP imaging, six days, hazard ratio from Cox regression). Type of test: cell-based. The note with it: Homo sapiens, survival rescue, read-out: C9 iPSC MN Significant survival rescue EC50.
Test [3] deals with T1, Full length human recombinant PIKFYVE (Homo sapiens, UniProt Q9Y2I7).
T1 construct: Full length human recombinant PIKFYVE; purchased Carna Biosciences (Kobe, Japan); host or cells: baculovirus expression system
Briefly: Inhibition of PIKfyve (microfluidic electrophoresis kinase assay, PI3P/PS substrate). Type of test: biochemical. The following applies: 12 concentrations. A digest of the protocol: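 Percent inhibition, from 12 concentrations, was derived from the product/(substrate+product) peak ratio separated by microfluidic electrophoresis, normalized to DMSO-only and enzyme-free controls. Reactions ran 3 h at room temperature: 2 nM N-terminal GST-PIKFYVE, 1 μM fluorescent PI3P in PS vesicles, […], HEPES pH 7.5, MgCl2/MnCl2.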

T1 sequence (Q9Y2I7 whole entry): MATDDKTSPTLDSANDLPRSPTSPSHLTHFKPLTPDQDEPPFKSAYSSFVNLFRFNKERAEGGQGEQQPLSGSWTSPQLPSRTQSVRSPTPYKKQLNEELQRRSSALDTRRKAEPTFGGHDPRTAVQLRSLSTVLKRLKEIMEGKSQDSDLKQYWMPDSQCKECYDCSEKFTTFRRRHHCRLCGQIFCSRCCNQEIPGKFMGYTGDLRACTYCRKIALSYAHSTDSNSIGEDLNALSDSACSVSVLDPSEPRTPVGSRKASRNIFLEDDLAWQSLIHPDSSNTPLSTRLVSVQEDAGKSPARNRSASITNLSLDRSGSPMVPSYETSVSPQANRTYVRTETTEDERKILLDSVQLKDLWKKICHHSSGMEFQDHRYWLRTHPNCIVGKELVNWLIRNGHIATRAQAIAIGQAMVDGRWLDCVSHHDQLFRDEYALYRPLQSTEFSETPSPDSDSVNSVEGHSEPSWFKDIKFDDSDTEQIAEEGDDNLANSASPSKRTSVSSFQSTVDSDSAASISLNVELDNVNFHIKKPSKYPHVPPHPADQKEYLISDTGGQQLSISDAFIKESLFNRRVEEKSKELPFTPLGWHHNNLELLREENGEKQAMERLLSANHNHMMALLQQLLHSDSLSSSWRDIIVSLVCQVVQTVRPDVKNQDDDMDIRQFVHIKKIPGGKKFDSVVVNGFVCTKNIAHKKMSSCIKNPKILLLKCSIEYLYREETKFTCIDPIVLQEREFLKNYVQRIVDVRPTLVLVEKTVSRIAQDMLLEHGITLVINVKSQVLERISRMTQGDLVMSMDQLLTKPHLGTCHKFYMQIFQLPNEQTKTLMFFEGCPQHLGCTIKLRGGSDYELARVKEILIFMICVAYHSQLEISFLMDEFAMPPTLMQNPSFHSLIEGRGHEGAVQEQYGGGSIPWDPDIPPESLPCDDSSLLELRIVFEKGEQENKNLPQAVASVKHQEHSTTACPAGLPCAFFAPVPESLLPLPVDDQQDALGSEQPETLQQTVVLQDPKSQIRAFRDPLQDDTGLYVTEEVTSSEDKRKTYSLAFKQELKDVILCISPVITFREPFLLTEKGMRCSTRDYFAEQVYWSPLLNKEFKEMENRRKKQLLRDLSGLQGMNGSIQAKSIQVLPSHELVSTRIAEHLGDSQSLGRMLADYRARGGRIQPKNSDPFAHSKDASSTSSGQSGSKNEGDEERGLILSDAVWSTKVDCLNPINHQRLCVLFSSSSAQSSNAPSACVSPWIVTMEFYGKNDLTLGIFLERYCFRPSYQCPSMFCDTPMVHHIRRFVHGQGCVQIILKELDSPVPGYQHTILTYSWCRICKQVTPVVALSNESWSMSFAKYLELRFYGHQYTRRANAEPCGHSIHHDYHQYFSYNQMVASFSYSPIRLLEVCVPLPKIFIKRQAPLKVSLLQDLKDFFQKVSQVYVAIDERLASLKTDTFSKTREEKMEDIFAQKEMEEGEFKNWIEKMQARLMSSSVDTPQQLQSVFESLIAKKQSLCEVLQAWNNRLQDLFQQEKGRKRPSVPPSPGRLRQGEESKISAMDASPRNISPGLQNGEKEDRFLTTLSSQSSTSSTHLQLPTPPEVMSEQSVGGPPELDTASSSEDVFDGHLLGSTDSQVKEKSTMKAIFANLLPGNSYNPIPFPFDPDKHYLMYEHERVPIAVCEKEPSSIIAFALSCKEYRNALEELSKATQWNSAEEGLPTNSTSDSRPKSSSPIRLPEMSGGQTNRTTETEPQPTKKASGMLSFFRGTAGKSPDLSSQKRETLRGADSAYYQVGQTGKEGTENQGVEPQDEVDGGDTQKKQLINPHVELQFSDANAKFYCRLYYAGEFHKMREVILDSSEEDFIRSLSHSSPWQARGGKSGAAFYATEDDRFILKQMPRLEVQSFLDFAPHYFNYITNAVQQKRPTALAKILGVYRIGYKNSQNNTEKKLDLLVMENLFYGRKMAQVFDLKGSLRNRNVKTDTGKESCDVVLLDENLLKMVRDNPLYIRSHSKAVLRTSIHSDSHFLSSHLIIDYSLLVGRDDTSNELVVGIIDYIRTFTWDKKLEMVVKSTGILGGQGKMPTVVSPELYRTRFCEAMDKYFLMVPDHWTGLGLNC

Turning to `Cc1cccc(-c2cnn(-c3nc(N4CCOCC4)c4oc(C(=O)NC5CC5)cc4n3)c2)c1` [Compound 100, N-cyclopropyl-4-morpholino-2-(4-(m-tolyl)-1H-pyrazol-1-yl)furo[3,2-d]pyrimidine-6-carboxamide], the values for the concentration giving a half-maximal response (EC50) in test [1] and in test [2] were 18 nM and 0.3 µM, respectively. For the same molecule, the IC50 (in general, the concentration at which inhibition is half-maximal) in test [3] amounted to 0.0012 µM.

With `Cc1cccc(-c2cnn(-c3nc(N4CCOCC4)c4oc(-c5cccnc5)cc4n3)c2)c1` [Compound 102, 4-morpholino-6-(pyridin-3-yl)-2-(4-(m-tolyl)-1H-pyrazol-1-yl)furo[3,2-d]pyrimidine], the EC50 (usually the concentration needed to bring the measured effect to its halfway point) stood at 43 nM in test [1] and 1 µM in test [2]. Moreover, the IC50 in test [3] is 0.0121 µM.

On to `Cc1cccc(-c2cnn(-c3nc(N4CCOCC4)c4oc(C(=O)NC5COC5)cc4n3)c2)c1` [Compound 106, 4-morpholino-N-(oxetan-3-yl)-2-(4-(m-tolyl)-1H-pyrazol-1-yl)furo[3,2-d]pyrimidine-6-carboxamide], for which the EC50 came to 53.5 nM in test [1] and 1 µM in test [2]. For the same molecule, the IC50 in test [3] turned out to be 0.0102 µM.

Consider `Cc1cccc(-c2ccn(-c3nc(N4CCOCC4)c4oc(-c5ccccn5)cc4n3)n2)c1` [Compound 91, 4-morpholino-6-(pyridin-2-yl)-2-(3-(m-tolyl)-1H-pyrazol-1-yl)furo[3,2-d]pyrimidine], for which the results for the 50% effective concentration (EC50) in test [1] and in test [2] were 24.5 nM and 1 µM, respectively. For the same molecule, in test [3], the IC50 was found to be 0.0039 µM.

On to `CCNC(=O)c1cc2nc(-n3cc(-c4cccc(C)c4)cn3)nc(N3CCOCC3)c2o1` [Compound 101, N-ethyl-4-morpholino-2-(4-(m-tolyl)-1H-pyrazol-1-yl)furo[3,2-d]pyrimidine-6-carboxamide], for which the EC50 in test [2] was 1 µM. For the same molecule, in test [3], the IC50 worked out at 0.0029 µM.

`Cc1cccc(-c2cc(Nc3nc(N4CCOCC4)c4oc(-c5ccncc5)cc4n3)[nH]n2)c1` [Compound 3, 4-morpholino-N-[5-(m-tolyl)-1H-pyrazol-3-yl]-6-(4-pyridyl)furo[3,2-d]pyrimidin-2-amine, hydrogen chloride]: the EC50 in test [1] was determined as 16 nM; in test [2] it was 3 µM. Besides, in test [3], the IC50 stood at 0.0008 µM.

`Cc1cccc(-c2cnn(-c3nc(N4CCOCC4)c4oc(C(=O)N[C@@H](C)C5CC5)cc4n3)c2)c1` [Compound 113, (S)-N-(1-cyclopropylethyl)-4-morpholino-2-(4-(m-tolyl)-1H-pyrazol-1-yl)furo[3,2-d]pyrimidine-6-carboxamide]: the EC50 in test [1] is 16 nM. The IC50 in test [3] is 0.0002 µM.

Consider `Cc1cccc(-c2cnn(-c3nc(N4CCOCC4)c4oc(-c5ccccn5)cc4n3)c2)c1` [Compound 103, 4-morpholino-6-(pyridin-2-yl)-2-(4-(m-tolyl)-1H-pyrazol-1-yl)fur[3,2-d]pyrimidine], for which the EC50 in test [2] was 1 µM. Moreover, the IC50 in test [3] was 0.0112 µM.

Take `Cc1cccc(-c2ccn(-c3nc(N4CCOCC4)c4oc(-c5ccncc5)cc4n3)n2)c1` [Compound 89, 4-morpholino-6-(pyridin-4-yl)-2-(3-(m-tolyl)-1H-pyrazol-1-yl)furo[3,2-d]pyrimidine]: in test [1], the EC50 amounted to 31.5 nM. For the same molecule, in test [3], the IC50 turned out to be 0.019 µM.

`Cc1cccc(-c2cnn(-c3nc(N4CCOCC4)c4oc(C(=O)NC5CCOCC5)cc4n3)c2)c1` [Compound 125, 4-morpholino-N-(tetrahydro-2H-pyran-4-yl)-2-(4-(m-tolyl)-1H-pyrazol-1-yl)furo[3,2-d]pyrimidine-6-carboxamide]: the EC50 in test [1] is 26 nM. Besides, in test [3], the IC50 is 0.0009 µM.

With `[2H]C1([2H])OC([2H])([2H])C([2H])([2H])N(c2nc(-n3cc(-c4cccc(C)c4)cn3)nc3cc(C(=O)NCC)oc23)C1([2H])[2H]` [Compound 131, N-ethyl-4-morpholino(dg)-2-(4-(m-tolyl)-1H-pyrazol-1-yl)furo[3,2-d]pyrimidine-6-carboxamide], the EC50 in test [1] was determined as 17 nM. In test [3], the IC50 came to 0.018 µM.

In turn, `Cc1cccc(-c2cnn(-c3nc(N4CCOCC4)c4oc(C(=O)NCCCN(C)C)cc4n3)c2)c1` [Compound 111, N-(3-(dimethylamino)propyl)-4-morpholino-2-(4-(m-tolyl)-1H-pyrazol-1-yl)furo[3,2-d]pyrimidine-6-carboxamide] gave an EC50 in test [1] of 35.5 nM. For the same molecule, the IC50 in test [3] came to 0.0031 µM.

Turning to `Cc1cccc(-c2cnn(-c3nc(N4CCOCC4)c4oc(-c5cc(C)n[nH]5)cc4n3)c2)c1` [Compound 144, 6-(3-methyl-1H-pyrazol-5-yl)-4-morpholino-2-(4-(m-tolyl)-1H-pyrazol-1-yl)furo[3,2-d]pyrimidine], the EC50 in test [1] amounted to 13 nM. Further, the IC50 in test [3] amounted to 0.0003 µM.

On to `CCNC(=O)c1cc2nc(Nc3cc(-c4ccccc4)[nH]n3)nc(N3CCOCC3)c2o1` [Compound 56, N-ethyl-4 morpholino-2-[(5-phenyl-1H-pyrazol-3-yl)amino]furo[3,2-d]pyrimidine-6-carboxamide, hydrogen chloride], for which the EC50 in test [1] came out at 15 nM; in test [2], 1 µM. In addition, in test [3], the IC50 was 0.002 µM.

Regarding `Cc1cccc(-c2cnn(-c3nc(N4CCOCC4)c4oc(C(=O)NCCCS(C)(=O)=O)cc4n3)c2)c1` [Compound 119, N-(3-(methylsulfonyl)propyl)-4-morpholino-2-(4-(m-tolyl)-1H-pyrazol-1-yl)furo[3,2-d]pyrimidine-6-carboxamide], the concentration for a half-maximal effect (EC50) in test [1] amounted to 96.5 nM. Moreover, in test [3], the 50% inhibitory concentration (IC50) worked out at 0.0082 µM.

On to `Cc1cccc(-c2cnn(-c3nc(N4CCOCC4)c4oc(C(=O)NCC5COC5)cc4n3)c2)c1` [Compound 107, 4-morpholino-N-(oxetan-3-ylmethyl)-2-(4-(m-tolyl)-1H-pyrazol-1-yl)furo[3,2-d]pyrimidine-6-carboxamide], for which the values for the half-maximal effective concentration (EC50) in test [1] and in test [2] were 59.5 nM and 1 µM, respectively. Besides, the IC50 in test [3] was 0.0019 µM.

`Cc1cccc(-c2ccn(-c3nc(N4CCOCC4)c4oc(C(=O)NC5COC5)cc4n3)n2)c1` [Compound 104, 4-morpholino-N-(oxetan-3-yl)-2-(3-(m-tolyl)-1H-pyrazol-1-yl)furo[3,2-d]pyrimidine-6-carboxamide] gave an EC50 in test [1] of 98 nM. Also, the concentration for half-maximal inhibition (IC50) in test [3] came to 0.0412 µM.

`Cc1cccc(-c2cnn(-c3nc(N4CCOCC4)c4oc(-c5ccncn5)cc4n3)c2)c1` [Compound 143, 4-morpholino-6-(pyrimidin-4-yl)-2-(4-(m-tolyl)-1H-pyrazol-1-yl)furo[3,2-d]pyrimidine]: the EC50 in test [1] amounted to 48 nM; in test [2] it was 1 µM. The IC50 in test [3] turned out to be 0.025 µM.

`CCNC(=O)c1cc2nc(-n3ccc(-c4cccc(C)c4)n3)nc(N3CCOCC3)c2o1` [Compound 95, N-ethyl-4-morpholino-2-(3-(m-tolyl)-1H-pyrazol-1-yl)furo[3,2-d]pyrimidine-6-carboxamide] came in with an EC50 in test [1] of 94 nM. Also, the IC50 in test [3] came out at 0.0118 µM.
